Key:
ERK2 = ERK2 (Homo sapiens, UniProt P28482); assay: ERK2 inhibition assay (spectrophotometric coupled-enzyme assay); format: biochemical; conditions: read-out: ERK2 Inhibitory Activity (Ki class D-F)
Description: The IC50 was evaluated from the rate data as a function of inhibitor concentration. […] The compound numbers correspond to the compound numbers in Table 1.

GSK-3β (AA 1–420) = target: T1, GSK-3β (AA 1–420) (Homo sapiens, UniProt P49841); assay: GSK-3 inhibition assay (coupled enzyme system); format: biochemical; conditions: read-out: GSK3 Inhibitory Activity (Ki class)
T1 construct: GSK-3β (AA 1–420)
Description: Final substrate concentrations in the assay were 20 μM ATP (Sigma Chemicals, St Louis, Mo.) and 300 μM peptide (HSSPHQS(PO3H2)EDEEE, American Peptide, Sunnyvale, Calif.). Reactions were carried out at 30° C. and 20 nM GSK-3β. Final concentrations of the components of the coupled enzyme system were 2.5 mM phosphoenolpyruvate, 300 μM NADH, 30 μg/ml pyruvate kinase and 10 μg/ml lactate dehydrogenase.
An assay stock buffer solution was prepared containing all of the reagents listed above with the exception of ATP and the test compound of interest. The assay stock buffer'solution (175 μl) was incubated in a 96 well plate with 5 μl of the test compound of interest at final concentrations spanning 0.002 μM to 30 μM at 30° C. for 10 min. […] The reaction was initiated by the addition of 20 μl of ATP (final concentration 20 μM). Rates of reaction were obtained using a Molecular Devices Spectramax plate reader (Sunnyvale, Calif.) over 10 min at 30° C. The Ki values were determined from the rate data as a function of inhibitor concentration.
The compound numbers correspond to the compound numbers in Table 1.

T1 sequence (P49841 whole entry, species assumed, the tested form may be a part): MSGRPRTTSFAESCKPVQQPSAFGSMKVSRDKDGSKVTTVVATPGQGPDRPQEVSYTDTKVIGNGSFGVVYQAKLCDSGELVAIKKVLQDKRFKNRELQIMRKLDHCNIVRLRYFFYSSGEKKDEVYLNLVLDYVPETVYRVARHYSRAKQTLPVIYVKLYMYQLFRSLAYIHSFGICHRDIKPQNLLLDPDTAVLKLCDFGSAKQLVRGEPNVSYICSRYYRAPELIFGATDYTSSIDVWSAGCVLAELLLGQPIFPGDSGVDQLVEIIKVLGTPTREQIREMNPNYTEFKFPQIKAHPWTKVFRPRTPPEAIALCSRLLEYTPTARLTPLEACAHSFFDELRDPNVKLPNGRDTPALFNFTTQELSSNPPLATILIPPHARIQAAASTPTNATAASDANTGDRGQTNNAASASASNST
Chain of ERK2 (P28482 whole entry): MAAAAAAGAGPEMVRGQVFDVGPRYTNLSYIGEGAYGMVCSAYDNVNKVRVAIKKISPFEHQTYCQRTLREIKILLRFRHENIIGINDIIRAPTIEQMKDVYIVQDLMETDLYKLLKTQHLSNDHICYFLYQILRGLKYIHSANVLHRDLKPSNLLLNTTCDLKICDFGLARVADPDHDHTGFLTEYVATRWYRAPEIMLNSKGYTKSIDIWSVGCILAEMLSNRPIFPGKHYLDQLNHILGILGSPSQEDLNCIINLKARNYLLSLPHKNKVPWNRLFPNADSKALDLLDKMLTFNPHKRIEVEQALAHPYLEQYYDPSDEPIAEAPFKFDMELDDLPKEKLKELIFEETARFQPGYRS

Ki (ERK2) [nM]	Ki (GSK-3β (AA 1–420)) [nM]	Compound
< 100	> 1000	Cc1cnc(NC(CO)C(C)C)nc1-c1c[nH]c(C(=O)NC(CO)c2ccccc2)c1 (stereo not drawn) [III-a-196, 4-[2-(1-Hydroxymethyl-2-methyl-propylamino)-5-methyl-pyrimidin-4-yl]-1H-pyrrole-2-carboxylic acid (2-hydroxy-1-phenyl-ethyl)-amide]
< 100	100 to 1000	Cc1cnc(NC(CO)c2ccc(F)c(Cl)c2)nc1-c1c[nH]c(C(=O)NC(CO)c2ccccc2)c1 (stereo not drawn) [III-a-230, 4-{2-[1-(3-Chloro-4-fluoro-phenyl)-2-hydroxy-ethylamino]-5-methyl-pyrimidin-4-yl}-1H-pyrrole-2-carboxylic acid (2-hydroxy-1-phenyl-ethyl)-amide]
< 100	< 100	Cc1cccc(C(CO)NC(=O)c2cc(-c3nc(Nc4cccc(F)c4)ncc3C)c[nH]2)c1 (stereo not drawn) [III-a-212, 4-[2-(3-Fluoro-phenylamino)-5-methyl-pyrimidin-4-yl]-1H-pyrrole-2-carboxylic acid (2-hydroxy-1-m-tolyl-ethyl)-amide]
< 100	> 1000	Cc1cnc(Nc2ccccc2Cl)nc1-c1c[nH]c(C(=O)NC(CO)c2cccc(C(F)(F)F)c2)c1 (stereo not drawn) [III-a-200, 4-[2-(2-Chloro-phenylamino)-5-methyl-pyrimidin-4-yl]-1H-pyrrole-2-carboxylic acid [2-hydroxy-1-(3-trifluoromethyl-phenyl)-ethyl]-amide]
< 100	< 100	Cc1cnc(Nc2cccc(C)c2C)nc1-c1c[nH]c(C(=O)NC(CO)c2ccccc2)c1 (stereo not drawn) [III-a-194, 4-[2-(2,3-Dimethyl-phenylamino)-5-methyl-pyrimidin-4-yl]-1H-pyrrole-2-carboxylic acid (2-hydroxy-1-phenyl-ethyl)-amide]
< 100	< 100	CONc1ncc(C)c(-c2c[nH]c(C(=O)NC(CO)c3ccccc3)c2)n1 (stereo not drawn) [III-a-206, 4-(2-Methoxyamino-5-methyl-pyrimidin-4-yl)-1H-pyrrole-2-carboxylic acid (2-hydroxy-1-phenyl-ethyl)-amide]
< 100	> 1000	Cc1cccc(C(CO)NC(=O)c2cc(-c3nc(NC(CO)c4ccccc4)ncc3C)c[nH]2)c1 (stereo not drawn) [III-a-210, 4-[2-(2-Hydroxy-1-phenyl-ethylamino)-5-methyl-pyrimidin-4-yl]-1H-pyrrole-2-carboxylic acid (2-hydroxy-1-m-tolyl-ethyl)-amide]
100 to 1000	> 1000	O=C(NC(CO)c1ccccc1)c1cc(-c2nc(Nc3ccccc3)ncc2C2CC2)c[nH]1 (stereo not drawn) [III-a-144, 4-(5-Cyclopropyl-2-phenylamino-pyrimidin-4-yl)-1H-pyrrole-2-carboxylic acid (2-hydroxy-1-phenyl-ethyl)-amide]
< 100	< 100	Cc1cccc(C(CO)NC(=O)c2cc(-c3nc(Nc4ccccc4Cl)ncc3C)c[nH]2)c1 (stereo not drawn) [III-a-209, 4-[2-(2-Chloro-phenylamino)-5-methyl-pyrimidin-4-yl]-1H-pyrrole-2-carboxylic acid (2-hydroxy-1-m-tolyl-ethyl)-amide]
< 100	< 100	Cc1ccc(C(CO)NC(=O)c2cc(-c3nc(Nc4ccccc4)ncc3C)c[nH]2)cc1F (stereo not drawn) [III-a-145, 4-(5-Methyl-2-phenylamino-pyrimidin-4-yl)-1H-pyrrole-2-carboxylic acid [1-(3-fluoro-4-methyl-phenyl)-2-hydroxy-ethyl]-amide]
< 100	< 100	Cc1cnc(NC(C)C)nc1-c1c[nH]c(C(=O)NC(CO)c2ccccc2)c1 (stereo not drawn) [III-a-153, 4-(2-Isopropylamino-5-methyl-pyrimidin-4-yl)-1H-pyrrole-2-carboxylic acid (2-hydroxy-1-phenyl-ethyl)-amide]
	> 1000	CCN(C(=O)c1cc(-c2ccnc(N)n2)c[nH]1)C(C)C(O)c1ccccc1 (stereo not drawn) [III-a-181, 4-(2-Amino-pyrimidin-4-yl)-1H-pyrrole-2-carboxylic acid (2-hydroxy-1-methyl-2-phenyl-ethyl)-ethyl-amide]
	< 100	Cc1ccccc1Nc1ncc(C)c(-c2c[nH]c(C(=O)NC(CO)c3cccc(Cl)c3)c2)n1 (stereo not drawn) [III-a-224, 4-(5-Methyl-2-o-tolylamino-pyrimidin-4-yl)-1H-pyrrole-2-carboxylic acid [1-(3-chloro-phenyl)-2-hydroxy-ethyl]-amide]
	< 100	Cc1cnc(NN2CCOCC2)nc1-c1c[nH]c(C(=O)NC(CO)c2ccccc2)c1 (stereo not drawn) [III-a-228, 4-[5-Methyl-2-(morpholin-4-ylamino)-pyrimidin-4-yl]-1H-pyrrole-2-carboxylic acid (2-hydroxy-1-phenyl-ethyl)-amide]
> 1000		CCN(CC)CCNc1ncc(C)c(-c2c[nH]c(C(=O)NCc3ccc(F)c(F)c3)c2)n1 [III-a-132, 4-[2-(2-Diethylamino-ethylamino)-5-methyl-pyrimidin-4-yl]-1H-pyrrole-2-carboxylic acid 3i4-difluoro-benzylamide]
100 to 1000		Nc1ncc(-c2cc(F)cc(C(F)(F)F)c2)c(-c2c[nH]c(C(=O)NC(CO)c3ccccc3)c2)n1 (stereo not drawn) [III-a-105, 4-[2-Amino-5-(3-fluoro-5-trifluoromethyl-phenyl)-pyrimidin-4-yl]-1H-pyrrole-2-carboxylic acid (2-hydroxy-1-phenyl-ethyl)-amide]
	< 100	COc1cccc(Nc2ncc(C)c(-c3c[nH]c(C(=O)NC(CO)c4ccccc4)c3)n2)c1 (stereo not drawn) [III-a-137, 4-[2-(3-Methoxy-phenylamino)-5-methyl-pyrimidin-4-yl]-1H-pyrrole-2-carboxylic acid (2-hydroxy-1-phenyl-ethyl)-amide]
100 to 1000		CCNc1ncc(C)c(-c2c[nH]c(C(=O)NCC(O)c3ccccc3)c2)n1 (stereo not drawn) [III-a-169, 4-(2-Ethylamino-5-methyl-pyrimidin-4-yl)-1H-pyrrole-2-carboxylic acid (2-hydroxy-2-phenyl-ethyl)-amide]
100 to 1000		COCc1cnc(N)nc1-c1c[nH]c(C(=O)N[C@H](CO)c2ccccc2)c1 [III-a-161, 4-(2-Amino-5-methoxymethyl-pyrimidin-4-yl)-1H-pyrrole-2-carboxylic acid (2-hydroxy-1-phenyl-ethyl)-amide]
	> 1000	CCNc1ncc(COC)c(-c2c[nH]c(C(=O)NC(CO)c3ccccc3)c2)n1 (stereo not drawn) [III-a-187, 4-(2-Ethylamino-5-methoxymethyl-pyrimidin-4-yl)-1H-pyrrole-2-carboxylic acid (2-hydroxy-1-phenyl-ethyl)-amide]

Compound	Ki (ERK2) [nM]	Ki (GSK-3β (AA 1–420)) [nM]
Cc1ccc(Nc2ncc(C)c(-c3c[nH]c(C(=O)NC(CO)c4ccccc4)c3)n2)cc1C (stereo not drawn) [III-a-151, 4-[2-(3,4-Dimethyl-phenylamino)-5-methyl-pyrimidin-4-yl]-1H-pyrrole-2-carboxylic acid (2-hydroxy-1-phenyl-ethyl)-amide]	< 100	< 100
Cc1cnc(NCCO)nc1-c1c[nH]c(C(=O)NC(CO)c2ccccc2)c1 (stereo not drawn) [III-a-175, 4-[2-(2-Hydroxy-ethylamino)-5-methyl-pyrimidin-4-yl]-1H-pyrrole-2-carboxylic acid (2-hydroxy-1-phenyl-ethyl)-amide]	< 100	100 to 1000
Cc1cnc(NOCC2CC2)nc1-c1c[nH]c(C(=O)NC(CO)c2ccccc2)c1 (stereo not drawn) [III-a-220, 4-(2-Cyclopropylmethoxyamino-5-methyl-pyrimidin-4-yl)-1H-pyrrole-2-carboxylic acid (2-hydroxy-1-phenyl-ethyl)-amide]	< 100	
